Experimental findings from article PMC7170901, “Design and efficient synthesis of pyrazoline and isoxazole bridged indole C-glycoside hybrids as potential anticancer agents” (Scientific Reports, 2020) are described below.

For this data set, the system named is MDA-MB-231 (human breast cancer) cell line. Description: MTT cell viability assay in MDA-MB-231 cells. In kind it is cell-based. The note with it: 72 h, MTT; for viability at 10 µM / viability at 25 µM / viability at 50 µM: Homo sapiens, MDA-MB-231, 72 h, read-out: Cell Viability (%) ± SD. On the procedure:
IC50 values were determined by plotting values of percent cell viability against concentration of each of these compounds. […] The experiments were performed in triplicates, n = 3 and ± SE value was calculated for each data point.
The human breast cancer cell line MDA-MB-231 were cultured in Dulbecco’s Modified Eagle’s Medium (DMEM) (Gibco, St. Louis, USA) supplemented with 10% heat inactivated FBS (Fetal Bovine Serum, Gibco, USA) and 1% penicillin-streptomycin (Gibco Canada) in humidified CO2 incubator at 37 °C. The cells were maintained as a monolayer in 100 mm culture plate. The cells used for each experiment were of less than 8 passage number. Sub culturing of cells was performed every third day, followed by trypsin EDTA treatment.
Cell viability assay was performed as per standard protocols. […] Ltd, India). In brief, this is a homogeneous, colorimetric method for determining the number of viable cells in proliferation, cytotoxicity or chemosensitivity assays. MTT is bio reduced by cells into a formazan product that is soluble in the tissue culture medium. […] The absorbance of the formazan product at 595 nm was measured directly from 96-well assay plates without additional processing using a multimode plate reader (Bio-Rad) (iMark, India), as absorbance is directly proportional to the number of viable cells in culture. The percentage of viable cells in each group is determined with respect to the untreated control cells.

Molecules are shown by their SMILES.

With `O=C(/C=C/c1c[nH]c2ccc([N+](=O)[O-])cc12)C[C@@H]1O[C@H](CO)[C@@H](O)[C@H](O)[C@H]1O` [Compound 10, (E)-4-(5-nitro-1H-indol-3-yl)-1-((2S,3R,4R,5S,6R)-3,4,5-trihydroxy-6-(hydroxymethyl)tetrahydro-2H-pyran-2-yl)but-3-en-2-one], the “Cell Viability (%) ± SD” value is 91.40 ± 10.38% (MDA-MB-231, 10 µM, 10 µM); 84.49 ± 6.74% (MDA-MB-231, 25 µM, 25 µM); 85.37 ± 14.16% (MDA-MB-231, 50 µM, 50 µM).

For orientation: viability means a read-out of living cells in per cent, often relative to untreated cells. Take `O=C(/C=C/c1c[nH]c2ccc(Br)cc12)C[C@@H]1O[C@H](CO)[C@@H](O)[C@H](O)[C@H]1O` [Compound 11, (E)-4-(5-bromo-1H-indol-3-yl)-1-((2S,3R,4R,5S,6R)-3,4,5-trihydroxy-6-(hydroxymethyl)tetrahydro-2H-pyran-2-yl)but-3-en-2-one]: where the note is “MDA-MB-231, 10 µM”, the viability at 10 µM was determined as 100 ± 23%. The viability at 25 µM (MDA-MB-231, 25 µM) came out at 100 ± 8.93%. Moreover, the viability at 50 µM (MDA-MB-231, 50 µM) turned out to be 108 ± 2.89%.

In the case of `O=C(/C=C/c1c[nH]c2ccc(Cl)cc12)C[C@@H]1O[C@H](CO)[C@@H](O)[C@H](O)[C@H]1O` [Compound 12, (E)-4-(5-chloro-1H-indol-3-yl)-1-((2S,3R,4R,5S,6R)-3,4,5-trihydroxy-6-(hydroxymethyl)tetrahydro-2H-pyran-2-yl)but-3-en-2-one], the viability at 10 µM (MDA-MB-231, 10 µM) is 79.2 ± 8.51%. Besides, the viability at 25 µM (MDA-MB-231, 25 µM) turned out to be 89.8 ± 8.75%. Further, the viability at 50 µM (MDA-MB-231, 50 µM) was determined as 74.8 ± 7.02%.

`O=C(/C=C/c1c[nH]c2ccccc12)C[C@@H]1O[C@H](CO)[C@H](O)[C@H](O)[C@H]1O` [Compound 13, (E)-4-(1H-indol-3-yl)-1-((2S,3R,4R,5R,6R)-3,4,5-trihydroxy-6-(hydroxymethyl)tetrahydro-2H-pyran-2-yl)but-3-en-2-one]: for the setting “MDA-MB-231, 10 µM”, the viability at 10 µM was determined as 97.6 ± 2.25%. Also, the viability at 25 µM (MDA-MB-231, 25 µM) was 94.2 ± 1.96%. The viability at 50 µM (MDA-MB-231, 50 µM) amounted to 84.2 ± 9.22%.

For `O=C(/C=C/c1c[nH]c2ccc(Br)cc12)C[C@@H]1O[C@H](CO)[C@H](O)[C@H](O)[C@H]1O` [Compound 15, (E)-4-(5-bromo-1H-indol-3-yl)-1-((2S,3R,4R,5R,6R)-3,4,5-trihydroxy-6-(hydroxymethyl)tetrahydro-2H-pyran-2-yl)but-3-en-2-one], the viability at 10 µM (MDA-MB-231, 10 µM) turned out to be 125 ± 3.51%. Under “MDA-MB-231, 25 µM”, the viability at 25 µM was 113 ± 23.9%. The viability at 50 µM (MDA-MB-231, 50 µM) stood at 67.5 ± 17.7%.

As to `O=C(/C=C/c1c[nH]c2ccc(Cl)cc12)C[C@@H]1O[C@H](CO)[C@H](O)[C@H](O)[C@H]1O` [Compound 16, (E)-4-(5-chloro-1H-indol-3-yl)-1-((2S,3R,4R,5R,6R)-3,4,5-trihydroxy-6-(hydroxylmethyl)tetrahydro-2H-pyran-2-yl)but-3-en-2-one], the viability at 10 µM (MDA-MB-231, 10 µM) stood at 75 ± 14.3%. Further, the viability at 25 µM (MDA-MB-231, 25 µM) stood at 89.6 ± 12.9%. The viability at 50 µM (MDA-MB-231, 50 µM) stood at 56.7 ± 17.8%.

`O=C(/C=C/c1c[nH]c2ccccc12)C[C@@H]1O[C@H](CO)[C@@H](O)[C@H](O)[C@@H]1O` [Compound 17, (E)-4-(1H-indol-3-yl)-1-((2S,3S,4R,5S,6R)-3,4,5-trihydroxy-6-(hydroxymethyl)tetrahydro-2H-pyran-2-yl)but-3-en-2-one]: the viability at 10 µM (MDA-MB-231, 10 µM) is 84.1 ± 4.09%. Besides, the viability at 25 µM (MDA-MB-231, 25 µM) amounted to 80.5 ± 2.58%. The viability at 50 µM (MDA-MB-231, 50 µM) amounted to 79.4 ± 10.4%.

For `O=C(/C=C/c1c[nH]c2ccc([N+](=O)[O-])cc12)C[C@@H]1O[C@H](CO)[C@@H](O)[C@H](O)[C@H]1O` [Compound 18, (E)-4-(5-nitro-1H-indol-3-yl)-1-((2S,3R,4R,5S,6R)-3,4,5-trihydroxy-6-(hydroxylmethyl)tetrahydro-2H-pyran-2-yl) but-3-en-2-one], for the setting “MDA-MB-231, 10 µM”, the viability at 10 µM is 71.7 ± 28.4%. The viability at 25 µM (MDA-MB-231, 25 µM) is 78.5 ± 6.73%. For the same molecule, for the setting “MDA-MB-231, 50 µM”, the viability at 50 µM was determined as 69.8 ± 20.4%.

Regarding `OC[C@H]1O[C@@H](CC2=NNC(c3c[nH]c4ccccc34)C2)[C@H](O)[C@@H](O)[C@@H]1O` (stereo partly drawn) [Compound 21, (2S,3R,4R,5S,6R)-2-((5-(1H-indol-3-yl)-4,5-dihydro-1H-pyrazol-3-yl)methyl)-6-(hydroxy-methyl)tetrahydro-2H-pyran-3,4,5-triol], under “MDA-MB-231, 10 µM”, the viability at 10 µM came to 73.5 ± 2.43%. Besides, the viability at 25 µM (MDA-MB-231, 25 µM) turned out to be 76.8 ± 2.43%. Also, the viability at 50 µM (MDA-MB-231, 50 µM) was found to be 75 ± 2.62%.

For `O=[N+]([O-])c1ccc2[nH]cc(C3CC(C[C@@H]4O[C@H](CO)[C@@H](O)[C@H](O)[C@H]4O)=NN3)c2c1` (stereo partly drawn) [Compound 22, (2R,3S,4R,5R,6S)-2-(hydroxymethyl)-6-((5-(5-nitro-1H-indol-3-yl)-4,5-dihydro-1H-pyrazol-3-yl)methyl)tetrahydro-2H-pyran-3,4,5-triol], the viability at 10 µM (MDA-MB-231, 10 µM) worked out at 70.4 ± 13%. Also, the viability at 25 µM (MDA-MB-231, 25 µM) came to 68.6 ± 11.1%. In addition, the viability at 50 µM (MDA-MB-231, 50 µM) turned out to be 70.3 ± 6.17%.

As for `OC[C@H]1O[C@@H](CC2=NNC(c3c[nH]c4ccc(Br)cc34)C2)[C@H](O)[C@@H](O)[C@@H]1O` (stereo partly drawn) [Compound 23, (2 S,3 R,4 R,5 S,6 R)-2-((5-(5-bromo-1H-indol-3-yl)-4,5-dihydro-1H-pyrazol-3-yl)methyl)-6-(hydroxymethyl)tetrahydro-2H-pyran-3,4,5-triol], the viability at 10 µM (MDA-MB-231, 10 µM) came to 105 ± 11.3%. In addition, the viability at 25 µM (MDA-MB-231, 25 µM) was 88.8 ± 2.22%. The viability at 50 µM (MDA-MB-231, 50 µM) was determined as 81.5 ± 5.45%.

Take `OC[C@H]1O[C@@H](CC2=NNC(c3c[nH]c4ccc(Cl)cc34)C2)[C@H](O)[C@@H](O)[C@@H]1O` (stereo partly drawn) [Compound 24, (2 S,3 R,4 R,5 S,6 R)-2-((5-(5-chloro-1H-indol-3-yl)-4,5-dihydro-1H-pyrazol-3-yl)methyl)-6-(hydroxymethyl)tetrahydro-2H-pyran-3,4,5-triol]: the viability at 10 µM (MDA-MB-231, 10 µM) is 82.2 ± 3.5%. Besides, the viability at 25 µM (MDA-MB-231, 25 µM) came to 77.5 ± 8.96%. In addition, for the setting “MDA-MB-231, 50 µM”, the viability at 50 µM was 77.7 ± 2.56%.

As for `O=[N+]([O-])c1ccc2[nH]cc(C3CC(C[C@@H]4O[C@H](CO)[C@H](O)[C@H](O)[C@H]4O)=NN3)c2c1` (stereo partly drawn) [Compound 26, (2 S,3 R,4 R,5 R,6 R)-2-((5-(5-nitro-1H-indol-3-yl)-4,5-dihydro-1H-pyrazol-3-yl)methyl)-6-(hydroxymethyl)tetrahydro-2H-pyran-3,4,5-triol], the viability at 10 µM (MDA-MB-231, 10 µM) was 101 ± 9.67%. The viability at 25 µM (MDA-MB-231, 25 µM) was determined as 98.25 ± 0.34%. For the same molecule, the viability at 50 µM (MDA-MB-231, 50 µM) was determined as 99.5 ± 1.88%.

On to `OC[C@H]1O[C@@H](CC2=NNC(c3c[nH]c4ccc(Br)cc34)C2)[C@H](O)[C@@H](O)[C@H]1O` (stereo partly drawn) [Compound 27, (2 S,3 R,4 R,5 R,6 R)-2-((5-(5-bromo-1H-indol-3-yl)-4,5-dihydro-1H-pyrazol-3-yl)methyl)-6-(hydroxymethyl)tetrahydro-2H-pyran-3,4,5-triol], for which the viability at 10 µM (MDA-MB-231, 10 µM) was 90 ± 7.7%. The viability at 25 µM (MDA-MB-231, 25 µM) came to 90.8 ± 7.09%. Further, the viability at 50 µM (MDA-MB-231, 50 µM) is 97.7 ± 10.1%.

Consider `OC[C@H]1O[C@@H](CC2=NNC(c3c[nH]c4ccc(Cl)cc34)C2)[C@H](O)[C@@H](O)[C@H]1O` (stereo partly drawn) [Compound 28, (2 S,3 R,4 R,5 R,6 R)-2-((5-(5-chloro-1H-indol-3-yl)-4,5-dihydro-1H-pyrazol-3-yl)methyl)-6-(hydroxymethyl)tetrahydro-2H-pyran-3,4,5-triol], for which the viability at 10 µM (MDA-MB-231, 10 µM) turned out to be 99.5 ± 10.2%. Moreover, the viability at 25 µM (MDA-MB-231, 25 µM) was 95.2 ± 13.6%. Further, the viability at 50 µM (MDA-MB-231, 50 µM) is 63.4 ± 17.5%.

In the case of `OC[C@H]1O[C@@H](CC2=NNC(c3c[nH]c4ccccc34)C2)[C@@H](O)[C@@H](O)[C@@H]1O` (stereo partly drawn) [Compound 29, (2 S,3 S,4 R,5 S,6 R)-2-((5-(1H-indol-3-yl)-4,5-dihydro-1H-pyrazol-3-yl)methyl)-6-(hydroxy-methyl)tetrahydro-2H-pyran-3,4,5-triol], the viability at 10 µM (MDA-MB-231, 10 µM) was determined as 82.2 ± 7.65%. In addition, under “MDA-MB-231, 25 µM”, the viability at 25 µM is 76.6 ± 6.58%. In addition, the viability at 50 µM (MDA-MB-231, 50 µM) is 73.5 ± 8.45%.

As for `O=[N+]([O-])c1ccc2[nH]cc(C3CC(C[C@@H]4O[C@H](CO)[C@@H](O)[C@H](O)[C@@H]4O)=NN3)c2c1` (stereo partly drawn) [Compound 30, (2 S,3 S,4 R,5 S,6 R)-2-((5-(5-nitro-1H-indol-3-yl)-4,5-dihydro-1H-pyrazol-3-yl)methyl)-6-(hydroxymethyl)tetrahydro-2H-pyran-3,4,5-triol], under “MDA-MB-231, 10 µM”, the viability at 10 µM turned out to be 93.8 ± 5.85%. Also, the viability at 25 µM (MDA-MB-231, 25 µM) turned out to be 92.1 ± 8%. Also, the viability at 50 µM (MDA-MB-231, 50 µM) is 88 ± 1.1%.

Regarding `OC[C@H]1O[C@@H](CC2=NNC(c3c[nH]c4ccc(Br)cc34)C2)[C@@H](O)[C@@H](O)[C@@H]1O` (stereo partly drawn) [Compound 31, (2 S,3 S,4 R,5 S,6 R)-2-((5-(5-bromo-1H-indol-3-yl)-4,5-dihydro-1H-pyrazol-3-yl)methyl)-6-(hydroxymethyl)tetrahydro-2H-pyran-3,4,5-triol], the viability at 10 µM (MDA-MB-231, 10 µM) was 91.4 ± 3.62%. Moreover, the viability at 25 µM (MDA-MB-231, 25 µM) was found to be 90.1 ± 6.77%. Moreover, the viability at 50 µM (MDA-MB-231, 50 µM) stood at 87.6 ± 6.27%.

On to `OC[C@H]1O[C@@H](CC2=NNC(c3c[nH]c4ccc(Cl)cc34)C2)[C@@H](O)[C@@H](O)[C@@H]1O` (stereo partly drawn) [Compound 32, (2 S,3 S,4 R,5 S,6 R)-2-((5-(5-chloro-1H-indol-3-yl)-4,5-dihydro-1H-pyrazol-3-yl)methyl)-6-(hydroxymethyl)tetrahydro-2H-pyran-3,4,5-triol], for which, under “MDA-MB-231, 10 µM”, the viability at 10 µM was found to be 74.6 ± 4.7%. For the same molecule, where the note is “MDA-MB-231, 25 µM”, the viability at 25 µM stood at 78.5 ± 4.44%. Also, the viability at 50 µM (MDA-MB-231, 50 µM) is 66.5 ± 7.27%.
